Laboratory results from paper PMC11743353 (Pharmacological Reports, 2024).
pEC50, pIC50: −log10 of the molar value. Like-named read-outs stand apart in the source and are kept apart here.

Assays:
SARS-CoV-2 [1] = type: cell-based
CD16 shedding = tested on: CD16 shedding; parameters: method as in PMID 28192188; details: 30 µM; PBMC co-cultured with hepatitis C virus-infected HuH7.5 cells; cited from earlier work
SARS-CoV-2 [2] = experiment: microbe, parasite or virus in culture; type: cell-based; details: for pEC50: Severe acute respiratory syndrome coronavirus 2, Calu-3
SARS-CoV-2 [3] = experiment: Plaques analysis (plaque dimension on Vero E6 cells); details: Vero E6 cells infected with supernatants of treated Calu-3 cells; mean diameter of 10 plaques
Method: In order to assess the levels of infective SARS-CoV-2 released by treated or untreated cells, a plaque assay was performed. Vero E6 were seeded in 12-well plates and infected with serial dilution (10-fold) of the supernatants derived from treated and infected Calu-3 cells. Plaques were visible five days after infection, then cells were methanol-fixed, stained with crystal violet (0.1%) and plaques were manually counted [26] (microscope NeXcope NE620). The experiments were run in triplicate.
After crystal violet (0.1%) staining for antiviral activity assessment, plaques forming unit were identified and measured in size. Dimension of plaques derived by cytopathic effect of SARS-CoV-2 in Vero E6 cells was evaluated by microscopy (NeXcope NE620). For each well, 5 different fields were manually selected, and at least 10 plaques for each condition were identified and measured using NeXcope visualization software (Capture V.2.0) and reported as mean diameter (mm) ± SD.

[4] = MTT assay for cell viability; type: cell-based; details: human, Calu-3 cells, read-out: CC50 (cytotoxic concentration 50%)
sALCAM release = tested on: sALCAM release; parameters: method as in PMID 24044434; details: ovarian cancer cell lines; cited from earlier work
MMP-1 [5] = target: T1, MMP-1 (Homo sapiens, UniProt P03956); details: isolated enzyme, fluorometric assay; cited from earlier work
T1 construct: purchased Merck Millipore 444208
T1 sequence (P03956 100-469): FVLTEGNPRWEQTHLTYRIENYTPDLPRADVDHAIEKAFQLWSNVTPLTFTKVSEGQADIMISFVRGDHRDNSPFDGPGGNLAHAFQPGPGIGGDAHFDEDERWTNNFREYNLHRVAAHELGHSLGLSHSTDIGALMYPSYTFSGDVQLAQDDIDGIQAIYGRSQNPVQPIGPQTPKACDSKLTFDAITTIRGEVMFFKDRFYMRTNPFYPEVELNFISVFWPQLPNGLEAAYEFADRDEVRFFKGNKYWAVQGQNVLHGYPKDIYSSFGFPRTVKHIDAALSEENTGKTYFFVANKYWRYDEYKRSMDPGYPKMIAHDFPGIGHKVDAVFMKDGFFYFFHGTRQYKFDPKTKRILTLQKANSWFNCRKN

SARS-CoV-2 [6] = type: cell-based; remark: listed apart in the source
[7] = tested on: ACE2 expression on Calu-3 cell surface; experiment: ACE2 immunofluorescence assay on Calu-3 cell surface; type: cell-based, human; details: Calu-3 cells; for ACE2 expression on cell membranes (immunofluorescence): 25 µM, 24 h and 48 h, compared to untreated
Method: Calu-3 cells were incubated with a specific antibody against human angiotensin-converting enzyme 2 (ACE2) (SN0754 Thermo Fisher; Italy) as previously reported, followed by incubation with the FITC goat antirabbit IgG (H + L) secondary antibody (Thermo Fisher, Milan, Italy). Immunofluorescence was observed by fluorescence microscopy (Nikon Eclipse TE2000S, Milan, Italy). DNA was stained using DAPI (Thermo Fisher, Milan, Italy) to identify cell nuclei and reported as relative fluorescence units (RFU) compared to untreated control sample, by immunofluorescence quantification derived by the analysis of 5 different images derived by biological replicates, using Qupath software. In Brief, for each condition, the percentage of ACE2-positive stained cells was obtained considering the total DAPI-stained nuclei as 100% and then normalized on untreated control sample result and reported as fold difference value.
Considering the role of ACE2 receptor in viral entry into host cells, and the ability of ADAM17 to shed it from cell surface, we analyzed ACE2 expression on Calu-3 cell surface by immunofluorescence after 24 and 48 h of treatment with the three compounds, at the concentration of 25 µM (Fig. 4 and supplementary Figure S1).

MMP-2 = target: T2, MMP-2 (Homo sapiens, UniProt P08253); experiment: Fluorometric enzyme inhibition assay, MMP-2; type: biochemical; details: isolated enzyme
T2 construct: purchased Merck Millipore PF037
T2 sequence (P08253 110-660): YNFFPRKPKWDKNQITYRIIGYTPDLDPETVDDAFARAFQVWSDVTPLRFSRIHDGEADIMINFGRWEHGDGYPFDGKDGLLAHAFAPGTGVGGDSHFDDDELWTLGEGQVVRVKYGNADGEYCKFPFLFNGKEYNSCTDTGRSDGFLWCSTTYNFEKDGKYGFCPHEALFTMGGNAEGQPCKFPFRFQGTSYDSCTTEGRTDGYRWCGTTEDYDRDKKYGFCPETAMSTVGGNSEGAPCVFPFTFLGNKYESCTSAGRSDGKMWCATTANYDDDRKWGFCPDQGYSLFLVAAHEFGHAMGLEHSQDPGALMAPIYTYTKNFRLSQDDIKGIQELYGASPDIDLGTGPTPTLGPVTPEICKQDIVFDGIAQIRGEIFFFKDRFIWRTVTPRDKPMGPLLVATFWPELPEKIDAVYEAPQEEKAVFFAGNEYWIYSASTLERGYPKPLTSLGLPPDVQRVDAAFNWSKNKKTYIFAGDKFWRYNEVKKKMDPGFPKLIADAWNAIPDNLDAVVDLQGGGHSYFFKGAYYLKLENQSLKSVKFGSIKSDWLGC

recombinant human ADAM17 = target: T3, recombinant human ADAM17 (Homo sapiens, UniProt P78536); experiment: Fluorometric enzyme inhibition assay, ADAM17; type: biochemical; details: isolated enzyme
T3 construct: purchased Merck Millipore PF133
T3 sequence (P78536 215-824): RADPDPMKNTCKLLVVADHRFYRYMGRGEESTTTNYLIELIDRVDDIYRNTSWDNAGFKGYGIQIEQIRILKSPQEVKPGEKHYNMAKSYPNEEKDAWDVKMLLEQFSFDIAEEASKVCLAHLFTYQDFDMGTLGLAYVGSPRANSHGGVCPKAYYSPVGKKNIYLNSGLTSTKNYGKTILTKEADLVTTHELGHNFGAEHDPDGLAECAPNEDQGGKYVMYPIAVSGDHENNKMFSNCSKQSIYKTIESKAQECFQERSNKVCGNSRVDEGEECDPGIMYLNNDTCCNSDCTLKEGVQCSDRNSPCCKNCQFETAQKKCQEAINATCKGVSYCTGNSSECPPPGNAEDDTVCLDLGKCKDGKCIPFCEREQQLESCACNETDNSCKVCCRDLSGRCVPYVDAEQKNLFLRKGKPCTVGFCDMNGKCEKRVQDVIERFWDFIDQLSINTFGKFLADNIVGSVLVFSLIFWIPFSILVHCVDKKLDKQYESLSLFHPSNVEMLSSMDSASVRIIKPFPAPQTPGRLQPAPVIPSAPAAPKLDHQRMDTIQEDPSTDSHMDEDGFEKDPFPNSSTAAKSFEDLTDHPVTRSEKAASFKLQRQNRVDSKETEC

[8] = target: T4, Recombinant human MMP-14 catalytic domain (Homo sapiens, UniProt P50281); experiment: Fluorometric enzyme inhibition assay, MMP-14; type: biochemical; details: isolated enzyme
T4 construct: Recombinant human MMP-14 catalytic domain was a kind gift of Prof; Gillian Murphy; gift of Prof; Gillian Murphy (Department of Oncology, University of Cambridge, UK)

MMP-1 [9] = target: T1, MMP-1; experiment: Fluorometric enzyme inhibition assay, MMP-1; type: biochemical; details: isolated enzyme
MMP-9 = target: T5, MMP-9 (Homo sapiens, UniProt P14780); experiment: Fluorometric enzyme inhibition assay, MMP-9; type: biochemical; details: isolated enzyme
T5 construct: purchased Merck Millipore PF038
T5 sequence (P14780 107-707 limits assumed): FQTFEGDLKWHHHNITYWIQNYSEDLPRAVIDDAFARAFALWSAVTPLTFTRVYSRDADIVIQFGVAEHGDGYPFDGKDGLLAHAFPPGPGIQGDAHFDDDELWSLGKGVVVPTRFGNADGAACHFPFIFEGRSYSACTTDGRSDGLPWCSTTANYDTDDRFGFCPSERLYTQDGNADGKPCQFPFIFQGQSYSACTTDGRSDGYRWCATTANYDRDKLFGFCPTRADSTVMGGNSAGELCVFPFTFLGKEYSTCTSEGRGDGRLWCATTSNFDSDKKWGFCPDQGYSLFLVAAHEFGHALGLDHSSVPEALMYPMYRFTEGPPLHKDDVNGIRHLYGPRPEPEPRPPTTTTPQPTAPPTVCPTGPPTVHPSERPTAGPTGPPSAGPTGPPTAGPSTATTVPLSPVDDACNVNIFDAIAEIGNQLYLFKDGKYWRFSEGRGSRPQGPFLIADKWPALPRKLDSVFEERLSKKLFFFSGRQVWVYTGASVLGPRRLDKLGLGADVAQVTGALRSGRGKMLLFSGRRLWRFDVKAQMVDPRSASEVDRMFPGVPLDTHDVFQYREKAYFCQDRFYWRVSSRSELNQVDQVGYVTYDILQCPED

Recombinant human ADAM10 = target: T6, Recombinant human ADAM10 (Homo sapiens, UniProt O14672); experiment: Fluorometric enzyme inhibition assay, ADAM10; type: biochemical; details: isolated enzyme
T6 construct: purchased R&D Systems 936-AD
T6 sequence (O14672 214-748): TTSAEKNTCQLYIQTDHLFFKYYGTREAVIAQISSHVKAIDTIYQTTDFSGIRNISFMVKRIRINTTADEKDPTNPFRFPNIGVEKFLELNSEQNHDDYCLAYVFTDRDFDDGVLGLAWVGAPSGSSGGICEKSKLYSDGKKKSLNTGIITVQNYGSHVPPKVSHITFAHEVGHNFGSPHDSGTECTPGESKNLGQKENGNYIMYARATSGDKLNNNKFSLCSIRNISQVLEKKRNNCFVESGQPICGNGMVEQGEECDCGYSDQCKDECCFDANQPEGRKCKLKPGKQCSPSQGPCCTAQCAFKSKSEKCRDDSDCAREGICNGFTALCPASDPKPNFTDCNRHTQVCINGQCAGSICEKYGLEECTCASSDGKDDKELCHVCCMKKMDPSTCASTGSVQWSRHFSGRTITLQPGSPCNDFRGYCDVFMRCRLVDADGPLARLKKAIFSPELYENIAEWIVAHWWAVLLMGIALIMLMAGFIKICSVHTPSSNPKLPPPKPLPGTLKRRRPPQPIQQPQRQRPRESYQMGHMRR

[10] = using CC50 values after 48 h of treatment

Compound | pEC50 (SARS-CoV-2 [2]) | Plaque dimension (mm ± SD) (SARS-CoV-2 [3]) [mm] | CC50 at 24 h [4] [µM] | CC50 at 48 h [4] [µM] | pIC50 (MMP-1 [5]) | ACE2 expression on cell membranes (immunofluorescence) [7] | SI (selectivity index, CC50/EC50) (SARS-CoV-2 [2]; [10]) | also measured
NC(=O)NCCC[C@@H](NS(=O)(=O)c1ccc(OCc2cc(Br)cc(Br)c2)cc1)C(=O)NO [JG26] | 5.09 | 0.42± 0.2 | 77.9 | 107 | < 3.30 | increased ACE2 expression | – | LR vs DMSO (viral load logarithmic reduction), RT-qPCR (SARS-CoV-2 [1]): 2.37; reduction of CD16 shedding (CD16 shedding): active; SI (selectivity index, CC50/EC50) (SARS-CoV-2 [2]): 13.23; block of sALCAM release (sALCAM release): able to block sALCAM release; LR vs DMSO (viral load logarithmic reduction), plaque assay (SARS-CoV-2 [6]): 1.44; effect on viral infection at lower concentration (SARS-CoV-2 [6]): did not show any effect
CC(=O)N[C@@H]1[C@@H](O)[C@H](O)[C@@H](CO)O[C@H]1NC(=S)NCCOCCOCCOCCOCCC(=O)NCCC[C@@H](NS(=O)(=O)c1ccc(OCc2cc(Br)cc(Br)c2)cc1)C(=O)NO [Compound 2, 1-(((2R, 3R, 4R, 5 S, 6R)-3-acetamido-4,5-dihydroxy-6-(hydroxymethyl)tetrahydro-2 H-pyran-2-yl)amino)-N-((R)-4-(4-((3,5-dibromobenzyl)oxy)phenylsulfonamido)-5-(hydroxyamino)-5-oxopentyl)-1-thioxo-5,8, 11, 14-tetraoxa-2-azaheptadecan-17-amide] | 4.87 | 0.61± 0.23 | 67.2 | 72 | – | – | 5.29 | pIC50 (MMP-2): 6.49; pIC50 (recombinant human ADAM17): 8.26; pIC50 [8]: 4.15; pIC50 (MMP-1 [9]): < 3.70; pIC50 (MMP-9): 5.75; pIC50 (Recombinant human ADAM10): 6.09
O=C(NCCC[C@@H](NS(=O)(=O)c1ccc(OCc2cc(Br)cc(Br)c2)cc1)C(=O)NO)c1cccc(C(=O)NCCC[C@@H](NS(=O)(=O)c2ccc(OCc3cc(Br)cc(Br)c3)cc2)C(=O)NO)c1 [Compound 1] | 4.90 | 0.53± 0.19 | 113 | 113 | < 3.70 | increased ACE2 expression | 8.91 | –
CCCCCCCCCCCCCC(=O)O[C@@H]1[C@@H](C)[C@@]2(O)[C@@H](C=C(CO)C[C@]3(O)C(=O)C(C)=C[C@@H]23)[C@@H]2C(C)(C)[C@]12OC(C)=O [PMA, Phorbol 12-myristate 13-acetate, reference compound] | – | 0.82± 0.32 | – | – | – | – | – | effect on SARS-CoV-2 infection (plaque assay and genome titration) (SARS-CoV-2 [6]): induced a sensible SARS-CoV-2 infection progression; ACE2 expression (immunofluorescence), ADAM17 inductor control ([7]; PMA control, compared to untreated samples): slightly decreased ACE2 expression
